Consider 13 molecules from patent US11129816B2, “Ring-fused thiazolino 2-pyridones in combination with a drug against tuberculosis” (QURETECH BIO AB, priority 2017, dated 2021).

One assay concerns Mycobacterium tuberculosis Erdman. The assay is described as follows: Treatment of Mycobacterium tuberculosis Erdman liquid culture with Q203 in the absence or presence of Example 1 (CFU count and ODλ600). Format: cell-based. The following applies: Sauton's media; Example 1 25 μM or Q203 0.4 μM alone; day 15; compared to DMSO control.
For `CCc1nc2ccc(Cl)cn2c1C(=O)NCc1ccc(N2CCC(c3ccc(OC(F)(F)F)cc3)CC2)cc1` [Example Q203, 6-chloro-2-ethyl-N-[(4-{4-[4-(trifluoromethoxy)phenyl]piperidin-1-yl}phenyl)methyl]imidazo[1,2-a]pyridine-3-carboxamide, reference compound], the “ODλ600 value (FIG. 3b)” value is recorded as “decrease the ODλ600 value considerably”. The same measure, in the same setting: the value for `O=C(O)[C@@H]1CSc2c(C3CC3)c(Cc3cccc4ccccc34)cc(=O)n21` [Example 1, (3R)-7-Cyclopropyl-6-[(1-naphthyl)methyl]-4-oxo-1-thia-3a-aza-3-indancarboxylic acid] was “decrease the ODλ600 value considerably”.

The next assay has as its system Mtb. The assay is described as follows: Microplate Alamar Blue Assay (MABA). Format: cell-based. The following applies: Mycobacterium tuberculosis. As for the experimental part:
The IC50 value was measured for the compounds 55-65. The measurement was made in accordance with the Microplate Alamar Blue Assay (MABA) as described by Franzblau, S. G. et al in Tuberculosis (Edinb). 92, 453-88 (2012: The MABA utilizes the dye resazurin, which is dark blue and nonfluorescent in its oxidized form but becomes pink and fluorescent when reduced to resorufin as a result of cellular metabolism. The MABA is commonly used to evaluate the efficacy of compounds in restraining Mtb growth, but also serves as an assay for aerobic respiration. The degree of the color change was monitored and quantified, and performing this assay with a range of compound concentrations allowed for calculating IC50 values for compounds. The IC50 value is defined as the concentration of the compound that inhibits the MABA color change by 50%.
`O=C(O)C1CSc2c(C3CC3)c(-c3cc(-c4cccs4)no3)cc(=O)n21` (stereo not shown) [Example 58, 1H-imidazol-1-ium 8-cyclopropyl-5-oxo-7-(3-(thiophen-2-yl)isoxazol-5-yl)-3,5-dihydro-2H-thiazolo[3,2-a]pyridine-3-carboxylate] registered an IC50 of 28.9 µM. Same read-out and setting: under `O=C(O)C1CSc2c(C3CC(c4ccccc4)=NO3)c(Cc3cccc4ccccc34)cc(=O)n21` (stereo not shown) [Example 61, 1H-imidazol-1-ium 7-(naphthalen-1-ylmethyl)-5-oxo-8-(3-phenyl-4,5-dihydroisoxazol-5-yl)-3,5-dihydro-2H-thiazolo[3,2-a]pyridine-3-carboxylate] stands 82.7 µM; under `O=C(O)C1CSc2c(C3CC3)c(-c3cc(-c4ccccc4)no3)cc(=O)n21` (stereo not shown) [Example 59, 1H-imidazol-1-ium 8-cyclopropyl-5-oxo-7-(3-phenylisoxazol-5-yl)-3,5-dihydro-2H-thiazolo[3,2-a]pyridine-3-carboxylate], 15.6 µM. On the same count and under the same terms, under `O=C(O)C1CSc2c(C3CC3)c(Cc3cccc4ccccc34)cc(=O)n21` (stereo not shown) [Example 65, 1H-imidazol-1-ium 8-cyclopropyl-7-(naphthalen-1-ylmethyl)-5-oxo-3,5-dihydro-2H-thiazolo[3,2-a]pyridine-3-carboxylate] stands 8.47 µM; under `O=C(O)C1CSc2c(C3CC3)c(-c3nc4ccccc4o3)cc(=O)n21` (stereo not shown) [Example 55, 1H-imidazol-1-ium 7-(benzo[d]oxazol-2-yl)-8-cyclopropyl-5-oxo-3,5-dihydro-2H-thiazolo[3,2-a]pyridine-3-carboxylate], 39.1 µM. For `O=C(O)C1CSc2c(C3CC3)c(-c3cc(-c4cccc(C(F)(F)F)c4)no3)cc(=O)n21` (stereo not shown) [Example 57, 1H-imidazol-1-ium 8-cyclopropyl-5-oxo-7-(3-(3-(trifluoromethyl)phenyl)isoxazol-5-yl)-3,5-dihydro-2H-thiazolo[3,2-a]pyridine-3-carboxylate], the IC50 stood at 2.53 µM. This IC50 is about 15-fold lower than that of the molecule before.

`O=C(O)C1CSc2c(-c3cc(-c4cccc5ccccc45)no3)c(Cc3cccc4ccccc34)cc(=O)n21` (stereo not shown) [Example 64, 1H-imidazol-1-ium 8-(3-(naphthalen-1-yl)isoxazol-5-yl)-7-(naphthalen-1-ylmethyl)-5-oxo-3,5-dihydro-2H-thiazolo[3,2-a]pyridine-3-carboxylate] displayed an IC50 of 14.4 µM.

As for `O=C(O)C1CSc2c(-c3cc(-c4ccccc4)no3)c(Cc3cccc4ccccc34)c(Br)c(=O)n21` (stereo not shown) [Example 60, 1H-imidazol-1-ium 6-bromo-7-(naphthalen-1-ylmethyl)-5-oxo-8-(3-phenylisoxazol-5-yl)-3,5-dihydro-2H-thiazolo[3,2-a]pyridine-3-carboxylate], the midpoint of inhibition, the IC50, lay at 4.51 µM. `C#Cc1c(Cc2cccc3ccccc23)cc(=O)n2c1SCC2C(=O)O` (stereo not shown) [Example 62, 1H-imidazol-1-ium 8-ethynyl-7-(naphthalen-1-ylmethyl)-5-oxo-3,5-dihydro-2H-thiazolo[3,2-a]pyridine-3-carboxylate] yielded a concentration for half-maximal inhibition (IC50) of 53.5 µM. Still for that read-out and setting: the value for `O=C(O)C1CSc2c(C3CC3)c(-c3cc(-c4cccc5ccccc45)no3)cc(=O)n21` (stereo not shown) [Example 56, 1H-imidazol-1-ium 8-cyclopropyl-7-(3-(naphthalen-1-yl)isoxazol-5-yl)-5-oxo-3,5-dihydro-2H-thiazolo[3,2-a]pyridine-3-carboxylate] was 2.53 µM. Molecule `O=C(O)C1CSc2c(-c3cc(-c4ccccc4)no3)c(Cc3cccc4ccccc34)cc(=O)n21` (stereo not shown) [Example 63, 1H-imidazol-1-ium 7-(naphthalen-1-ylmethyl)-5-oxo-8-(3-phenylisoxazol-5-yl)-3,5-dihydro-2H-thiazolo[3,2-a]pyridine-3-carboxylate] gave an IC50 of 12.7 µM.
